Test results published in patent US11957687B2 (REGENERON PHARMACEUTICALS, INC., priority 2019, dated 2024).

How the values were obtained:
[1] = biological target: HSD17B1 (Homo sapiens (Human), UniProt P14061); experiment: HSD17B1 enzymatic blocking assay; type: biochemical; conditions: 25 μM Estradiol, 500 μM NAD; read-out: Inhibition of HSD17B1 IC50
Summary of the method: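 Activity followed as NADH formed on estradiol oxidation, read by NADH-Glo luminescence after 1 h detection in the dark at room temperature. Compounds preincubated with enzyme 30 min at room temperature; 0.5% DMSO and no-substrate controls. IC50 fitted from luminescence.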

[2] = biological target: HSD17B2 (Homo sapiens (Human), UniProt P37059); experiment: HSD17B2 enzymatic blocking assay; type: biochemical; conditions: 1.8 μM Estradiol, 650 μM NAD; read-out: Inhibition of HSD17B2 IC50
Sequence of HSD17B2 (P37059 other isoform, or with tags, fused parts or gaps): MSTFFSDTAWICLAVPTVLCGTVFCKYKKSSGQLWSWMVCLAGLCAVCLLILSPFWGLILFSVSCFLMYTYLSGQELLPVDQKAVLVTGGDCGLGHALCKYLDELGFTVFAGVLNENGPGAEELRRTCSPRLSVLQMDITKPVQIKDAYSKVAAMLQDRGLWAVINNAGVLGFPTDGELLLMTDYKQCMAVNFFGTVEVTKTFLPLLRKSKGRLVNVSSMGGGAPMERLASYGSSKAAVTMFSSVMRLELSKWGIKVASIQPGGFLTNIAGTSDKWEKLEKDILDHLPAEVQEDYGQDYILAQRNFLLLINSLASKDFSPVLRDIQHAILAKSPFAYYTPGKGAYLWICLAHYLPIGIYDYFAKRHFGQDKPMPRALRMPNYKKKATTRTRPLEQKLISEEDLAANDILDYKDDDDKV
Summary of the method: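 Mammalian-expressed enzyme at 2 ng/μL in 50 mM Tris-HCl pH 7.5 with detergents/BSA, preincubated 15 min at 20° C. with compound (10-point titration). Reaction with 1.8 μM estradiol and 650 μM NAD ran 45 min at 20° C.; NADH measured by NADH-Glo luminescence and IC50 derived.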

[3] = Microsome stability assay, human liver microsomes; type: in vitro ADME; conditions: 1 μM compound, 0.5 mg/mL microsomal protein; for microsomal CLint at 1 μM / half-life at 1 μM / microsomal CLint at 1 h, 1 µM / half-life at 1 h, 1 µM: human, human liver microsomes, pooled, NADPH, 37° C.; for microsomal CLint at 1 μM / microsomal CLint at 1 h, 1 µM: read-out: Microsome Stability Human liver microsomes Cl; for half-life at 1 μM / half-life at 1 h, 1 µM: read-out: Microsome Stability Human liver microsomes T½
Summary of the method: (§1)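 Compound at 1 μM incubated at 37° C with pooled human or mouse liver microsomes (0.5 mg/mL protein) plus NADPH regenerating system, sampled at 0–60 min; a 60-min no-NADPH incubation also included. Single replicate; LC/MS/MS disappearance from analyte/internal standard peak area ratios, without standard curve.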

[4] = Microsome stability assay, mouse liver microsomes; type: in vitro ADME; conditions: 1 μM compound, 0.5 mg/mL microsomal protein; for microsomal CLint at 1 h, 1 µM / half-life at 1 h, 1 µM / microsomal CLint at 1 μM / half-life at 1 μM: mouse, mouse liver microsomes, pooled, NADPH, 37° C.; for microsomal CLint at 1 h, 1 µM / microsomal CLint at 1 μM: read-out: Microsome Stability Mouse liver microsomes Cl; for half-life at 1 h, 1 µM / half-life at 1 μM: read-out: Microsome Stability Mouse liver microsomes T½
Summary of the method: as §1

[5] = biological target: HSD17B13 (Homo sapiens (Human), UniProt Q7Z5P4); experiment: HSD17B13 enzymatic inhibition assay (150 nM or 50 nM HSD17B13); type: biochemical; conditions: 50 nM HSD17B13; read-out: Inhibition of 50 nM of HSD17B13 IC50
Sequence of HSD17B13 (Q7Z5P4 other isoform, or with tags, fused parts or gaps): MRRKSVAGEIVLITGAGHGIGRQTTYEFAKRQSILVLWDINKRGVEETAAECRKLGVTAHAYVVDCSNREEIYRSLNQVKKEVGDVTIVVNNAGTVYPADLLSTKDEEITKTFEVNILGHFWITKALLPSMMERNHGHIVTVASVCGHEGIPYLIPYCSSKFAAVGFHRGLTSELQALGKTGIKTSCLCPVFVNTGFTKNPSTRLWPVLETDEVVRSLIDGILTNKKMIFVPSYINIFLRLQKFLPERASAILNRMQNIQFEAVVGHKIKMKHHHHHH

Sequence of HSD17B1 (P14061 other isoform, or with tags, fused parts or gaps): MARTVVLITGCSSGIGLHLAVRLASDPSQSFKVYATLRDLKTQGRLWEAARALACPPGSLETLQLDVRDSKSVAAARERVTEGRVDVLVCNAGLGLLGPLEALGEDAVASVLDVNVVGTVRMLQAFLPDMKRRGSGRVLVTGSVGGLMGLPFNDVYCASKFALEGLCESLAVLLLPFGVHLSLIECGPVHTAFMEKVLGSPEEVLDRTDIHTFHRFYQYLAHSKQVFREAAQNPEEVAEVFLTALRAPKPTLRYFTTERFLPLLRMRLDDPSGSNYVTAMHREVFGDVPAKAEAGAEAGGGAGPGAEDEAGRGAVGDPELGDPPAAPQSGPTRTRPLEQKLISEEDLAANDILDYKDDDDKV

O=C(NC(c1ccccc1)c1ccccc1Cl)c1ccc(C(F)(F)F)[nH]c1=O (centres unmarked) [Compound 9, N-((2-chlorophenyl)(phenyl)methyl)-2-oxo-6-(trifluoromethyl)-1,2-dihydropyridine-3-carboxamide]
IC50 [1]: > 30 µM
IC50 [2]: 8.48 µM
Microsome Stability Human liver microsomes % Remaining @60 min [3]: 82.00%
microsomal CLint at 1 μM [3]: < 9.6 µL/min/mg
half-life at 1 μM [3]: > 145 min
Microsome Stability Mouse liver microsomes % Remaining @60 min [4]: 16.80%
microsomal CLint at 1 h, 1 µM [4]: 59.6 µL/min/mg
half-life at 1 h, 1 µM [4]: 23.3 min

Cc1ccc(C(NC(=O)c2ccc(C(F)(F)F)[nH]c2=O)c2ccc(C)cc2)cc1 [Compound 15, N-(di-p-tolylmethyl)-2-oxo-6-(trifluoromethyl)-1,2-dihydropyridine-3-carboxamide]
IC50 [5]: 0.26 µM
IC50 [1]: > 30 µM
IC50 [2]: 11.2 µM
Microsome Stability Human liver microsomes % Remaining @60 min [3]: 41.70%
microsomal CLint at 1 h, 1 µM [3]: 30.2 µL/min/mg
half-life at 1 h, 1 µM [3]: 45.9 min
Microsome Stability Mouse liver microsomes % Remaining @60 min [4]: 5.60%
microsomal CLint at 1 h, 1 µM [4]: 96.8 µL/min/mg
half-life at 1 h, 1 µM [4]: 14.3 min

O=C(NC(c1ccc(Cl)cc1)c1ccc(Cl)cc1)c1ccc(C(F)(F)F)[nH]c1=O [Compound 17, N-(bis(4-chlorophenyl)methyl)-2-oxo-6-(trifluoromethyl)-1,2-dihydropyridine-3-carboxamide]
IC50 [5]: 0.96 µM
IC50 [1]: > 30 µM
IC50 [2]: 10.9 µM
Microsome Stability Human liver microsomes % Remaining @60 min [3]: 97.60%
microsomal CLint at 1 μM [3]: < 9.6 µL/min/mg
half-life at 1 μM [3]: > 145 min
Microsome Stability Mouse liver microsomes % Remaining @60 min [4]: 70.60%
microsomal CLint at 1 h, 1 µM [4]: 10.2 µL/min/mg
half-life at 1 h, 1 µM [4]: 136 min

O=C(Nc1cccc2c(O)cccc12)c1ccc(C(F)(F)F)[nH]c1=O [Compound 223, N-(5-hydroxynaphthalen-1-yl)-2-oxo-6-(trifluoromethyl)-1,2-dihydropyridine-3-carboxamide]
IC50 [5]: 0.35 µM
IC50 [1]: > 30 µM
IC50 [2]: 28.6 µM
Microsome Stability Human liver microsomes % Remaining @60 min [3]: 60.30%
microsomal CLint at 1 h, 1 µM [3]: 14.8 µL/min/mg
half-life at 1 h, 1 µM [3]: 93.7 min
Microsome Stability Mouse liver microsomes % Remaining @60 min [4]: 83.80%
microsomal CLint at 1 μM [4]: < 9.6 µL/min/mg
half-life at 1 μM [4]: > 145 min

Nc1cccc2c(NC(=O)c3ccc(C(F)(F)F)[nH]c3=O)cccc12 [Compound 228, N-(5-aminonaphthalen-1-yl)-2-oxo-6-(trifluoromethyl)-1,2-dihydropyridine-3-carboxamide]
IC50 [5]: 0.56 µM
IC50 [1]: 24.8 µM
IC50 [2]: 28 µM
Microsome Stability Human liver microsomes % Remaining @60 min [3]: 60.40%
microsomal CLint at 1 h, 1 µM [3]: 16.4 µL/min/mg
half-life at 1 h, 1 µM [3]: 84.5 min
Microsome Stability Mouse liver microsomes % Remaining @60 min [4]: 76.60%
microsomal CLint at 1 μM [4]: < 9.6 µL/min/mg
half-life at 1 μM [4]: > 145 min

O=C(NC1CCCc2c(O)cccc21)c1ccc(C(F)(F)F)[nH]c1=O (centres unmarked) [Compound 230, N-(5-hydroxy-1,2,3,4-tetrahydronaphthalen-1-yl)-2-oxo-6-(trifluoromethyl)-1,2-dihydropyridine-3-carboxamide]
IC50 [5]: 0.21 µM
IC50 [1]: > 30 µM
IC50 [2]: 40.7 µM
Microsome Stability Human liver microsomes % Remaining @60 min [3]: 83.40%
microsomal CLint at 1 μM [3]: < 9.6 µL/min/mg
half-life at 1 μM [3]: > 145 min
Microsome Stability Mouse liver microsomes % Remaining @60 min [4]: 94.70%
microsomal CLint at 1 μM [4]: < 9.6 µL/min/mg
half-life at 1 μM [4]: > 145 min

COc1ccc2c(c1)Sc1cc(OC)ccc1C2NC(=O)c1ccc(C(F)(F)F)[nH]c1=O [Compound 241, N-(3,6-dimethoxy-9H-thioxanthen-9-yl)-2-oxo-6-(trifluoromethyl)-1,2-dihydropyridine-3-carboxamide]
IC50 [5]: 0.03 µM
IC50 [1]: 15.8 µM
IC50 [2]: > 100 µM
Microsome Stability Human liver microsomes % Remaining @60 min [3]: 78%
microsomal CLint at 1 μM [3]: < 9.6 µL/min/mg
half-life at 1 μM [3]: > 145 min
Microsome Stability Mouse liver microsomes % Remaining @60 min [4]: 64%
microsomal CLint at 1 h, 1 µM [4]: 13.4 µL/min/mg
half-life at 1 h, 1 µM [4]: 103 min

Cc1ccc2c(c1)Sc1cc(C)ccc1C2NC(=O)c1ccc(C(F)(F)F)[nH]c1=O [Compound 252, N-(3,6-dimethyl-9H-thioxanthen-9-yl)-2-oxo-6-(trifluoromethyl)-1,2-dihydropyridine-3-carboxamide]
IC50 [5]: 0.01 µM
IC50 [1]: 5.84 µM
IC50 [2]: 19.3 µM
Microsome Stability Human liver microsomes % Remaining @60 min [3]: 73.50%
microsomal CLint at 1 h, 1 µM [3]: 11 µL/min/mg
half-life at 1 h, 1 µM [3]: 126 min
Microsome Stability Mouse liver microsomes % Remaining @60 min [4]: 28.60%
microsomal CLint at 1 h, 1 µM [4]: 41.7 µL/min/mg
half-life at 1 h, 1 µM [4]: 33.2 min

Cc1ccc2c(c1)Oc1cc(C)ccc1C2NC(=O)c1cc(OC2CCOCC2)c(C(F)(F)F)[nH]c1=O [Compound 260, N-(3,6-dimethyl-9H-xanthen-9-yl)-2-oxo-5-((tetrahydro-2H-pyran-4-yl)oxy)-6-(trifluoromethyl)-1,2-dihydropyridine-3-carboxamide]
IC50 [5]: 0.02 µM
IC50 [1]: 11.1 µM
IC50 [2]: 32.1 µM
Microsome Stability Human liver microsomes % Remaining @60 min [3]: 24.50%
microsomal CLint at 1 h, 1 µM [3]: 46.9 µL/min/mg
half-life at 1 h, 1 µM [3]: 29.5 min
Microsome Stability Mouse liver microsomes % Remaining @60 min [4]: 81.70%
microsomal CLint at 1 μM [4]: < 9.6 µL/min/mg
half-life at 1 μM [4]: > 145 min

COc1ccc2c(c1)Sc1ccccc1C2NC(=O)c1ccc(C(F)F)[nH]c1=O (centres unmarked) [Compound 272, 6-(difluoromethyl)-N-(3-methoxy-9H-thioxanthen-9-yl)-2-oxo-1,2-dihydropyridine-3-carboxamide]
IC50 [5]: 0.43 µM
IC50 [1]: > 30 µM
IC50 [2]: 29.7 µM
Microsome Stability Human liver microsomes % Remaining @60 min [3]: 73.40%
microsomal CLint at 1 h, 1 µM [3]: 12.1 µL/min/mg
half-life at 1 h, 1 µM [3]: 114 min
Microsome Stability Mouse liver microsomes % Remaining @60 min [4]: 13.10%
microsomal CLint at 1 h, 1 µM [4]: 68.2 µL/min/mg
half-life at 1 h, 1 µM [4]: 20.3 min

CCCC1CCc2cc(OC)ccc2C1NC(=O)c1ccc(C(F)(F)F)[nH]c1=O (centres unmarked) [Compound 289, N-(6-methoxy-2-propyl-1,2,3,4-tetrahydronaphthalen-1-yl)-2-oxo-6-(trifluoromethyl)-1,2-dihydropyridine-3-carboxamide]
IC50 [5]: 0.08 µM
IC50 [1]: > 30 µM
IC50 [2]: 29.4 µM
Microsome Stability Human liver microsomes % Remaining @60 min [3]: 14.90%
microsomal CLint at 1 h, 1 µM [3]: 59.9 µL/min/mg
half-life at 1 h, 1 µM [3]: 23.1 min
Microsome Stability Mouse liver microsomes % Remaining @60 min [4]: 22.70%
microsomal CLint at 1 h, 1 µM [4]: 47 µL/min/mg
half-life at 1 h, 1 µM [4]: 29.5 min

CCC1Cc2cc(C)ccc2C1NC(=O)c1ccc(C(F)(F)F)[nH]c1=O (centres unmarked) [Compound 298, N-(2-ethyl-5-methyl-2,3-dihydro-1H-inden-1-yl)-2-oxo-6-(trifluoromethyl)-1,2-dihydropyridine-3-carboxamide]
IC50 [5]: 0.06 µM
IC50 [1]: > 30 µM
IC50 [2]: 30.9 µM
Microsome Stability Human liver microsomes % Remaining @60 min [3]: 1%
microsomal CLint at 1 h, 1 µM [3]: 450 µL/min/mg
half-life at 1 h, 1 µM [3]: 3.08 min
Microsome Stability Mouse liver microsomes % Remaining @60 min [4]: 26.50%
microsomal CLint at 1 h, 1 µM [4]: 45.1 µL/min/mg
half-life at 1 h, 1 µM [4]: 30.7 min

CCC1CCc2cc(OC)ccc2C1NC(=O)c1ccc(C(F)(F)F)[nH]c1=O (centres unmarked) [Compound 299, N-(2-ethyl-6-methoxy-1,2,3,4-tetrahydronaphthalen-1-yl)-2-oxo-6-(trifluoromethyl)-1,2-dihydropyridine-3-carboxamide]
IC50 [5]: 0.1 µM
IC50 [1]: > 30 µM
IC50 [2]: 22.6 µM
Microsome Stability Human liver microsomes % Remaining @60 min [3]: 11%
microsomal CLint at 1 h, 1 µM [3]: 66.8 µL/min/mg
half-life at 1 h, 1 µM [3]: 20.8 min
Microsome Stability Mouse liver microsomes % Remaining @60 min [4]: 43.50%
microsomal CLint at 1 h, 1 µM [4]: 27.4 µL/min/mg
half-life at 1 h, 1 µM [4]: 50.6 min

Cc1ccc2c(c1)Sc1cc(C)ccc1C2NC(=O)c1cc(-c2ccccc2)c(C(F)(F)F)[nH]c1=O [Compound 306, N-(3,6-dimethyl-9H-thioxanthen-9-yl)-2-oxo-5-phenyl-6-(trifluoromethyl)-1,2-dihydropyridine-3-carboxamide]
IC50 [5]: 0.03 µM
IC50 [1]: 7.47 µM
IC50 [2]: 17.3 µM
Microsome Stability Human liver microsomes % Remaining @60 min [3]: 12.80%
microsomal CLint at 1 h, 1 µM [3]: 72.9 µL/min/mg
half-life at 1 h, 1 µM [3]: 19 min
Microsome Stability Mouse liver microsomes % Remaining @60 min [4]: 70.90%
microsomal CLint at 1 h, 1 µM [4]: 9.6 µL/min/mg
half-life at 1 h, 1 µM [4]: 144 min

Cc1ccc2c(c1)Sc1cc(C)ccc1C2NC(=O)c1cc(-c2ccccn2)c(C(F)(F)F)[nH]c1=O [Compound 307, N-(3,6-dimethyl-9H-thioxanthen-9-yl)-6′-oxo-2′-(trifluoromethyl)-1′,6′ dihydro-[2,3′-bipyridine]-5′-carboxamide]
IC50 [5]: 0.01 µM
IC50 [1]: 2.73 µM
IC50 [2]: 8.98 µM
Microsome Stability Human liver microsomes % Remaining @60 min [3]: 0.85%
microsomal CLint at 1 h, 1 µM [3]: 154 µL/min/mg
half-life at 1 h, 1 µM [3]: 9 min
Microsome Stability Mouse liver microsomes % Remaining @60 min [4]: 96.20%
microsomal CLint at 1 μM [4]: < 9.6 µL/min/mg
half-life at 1 μM [4]: > 145 min
